From patent US12018172B2, “Sidechain functionalized organosiloxanes, coating compositions containing sidechain functionalized organosiloxanes, coated articles, and methods of making and methods of use thereof” (Adaptive Surface Technologies, Inc., priority 2018, dated 2024)

Experiment: Biocide miscibility screening
Type: physicochemical
Conditions: 50:50 mixture, 24 hrs
Text: Each component was mixed as 50:50 (based on active solids) mixture. The content was allowed to sit for 24 hrs before photographing.

Compound	Miscibility of Econea and SeaNine 211N with each other	Miscibility with AM-14	Miscibility with AM-24	Miscibility with PDMS (silanol)
N#Cc1c(-c2ccc(Cl)cc2)[nH]c(C(F)(F)F)c1Br [Econea, Tralopyril 4-bromo-2-(4-chlorophenyl)-5-(trifluoromethyl)-1H-pyrrole-3-carbonitrile]	not miscible	only partially miscible	good miscibility	only partially miscible
CCCCCCCCn1sc(Cl)c(Cl)c1=O [SeaNine 211N, 4,5-Dichloro-2-n-octyl-4-isothiazolin-4-one]	not miscible	miscible	miscible	did not show complete miscibility
